The test system of one series is E. cloacae β-12. Description: Liquid growth inhibition assay, MIC. It is filed as cell-based, Enterobacter cloacae. As to conditions: 37° C., 18 h. The protocol:
(§1) Initially, the antimicrobial activity was determined by liquid growth inhibition assays, as previously described by Pedron et al.^62. Briefly, Peptone Broth and Potato Dextrose Broth (Invitrogen) were used for antibacterial and antifungal assays, respectively. Two-fold serial dilutions of peptides (0.09-50 μmol L^−1) and microorganisms (Serratia marcescens ATCC 4112, Enterobacter cloacae β-12, Micrococcus luteus A270, Bacillus megaterium ATCC 10778, Bacillus subtilis ATCC 6633, Candida albicans MDM8, and Candida tropicalis IOC 4560) were incubated at 37° C. for 18 h (for bacteria) or 24 h (for fungi), and microbial growth was assessed by absorbance measurements at 595 nm. Experiments were performed in three biological repeats.

The test system of a further series is C. tropicalis IOC 4560. Description: Liquid growth inhibition assay, MIC (antifungal). It is filed as cell-based, Candida tropicalis. As to conditions: 37° C., 24 h. The protocol: as §1
Series [1] in a line: Circular dichroism, helical fraction (Lifson-Roig). As to conditions: peptide 50 μmol L^−1. It is filed as physicochemical. The method, then:
Method. Circular dichroism (CD) assays were performed with a Spectropolarimeter Jasco Mod. J-815 (JascoCorp). CD spectra were obtained in Far-UV (195-260 nm), and analyzed in the following solutions: water, 2,2,2-trifluoroethanol (TFE) in water (3:2, v:v), phosphate buffer saline (PBS, 10 mmol L^−1, pH 7.4), sodium dodecyl sulfate (SDS 20 mmol L^−1) in water, palmitoyloleoylphosphatidylcholine (POPC; 10 mmol L^−1), palmitoyloleoylphosphatidylcholine:dioleylphosphatidylethanolamine (POPC:DOPE; 3:1, mol:mol, 10 mmol L^−1) and palmitoyloleoylphosphatidylcholine:palmitoyloleoylphosphatidylglycerol (POPC:POPG; 3:1, mol:mol, 10 mmol L^−1) at a peptide concentration of 50 μmol L^−1. These experiments were performed as described in detail by Pedron et al.^62.
For orientation: CD spectra are sensitive to the conformation of chiral molecules.

Another series has as its system M. luteus A270. Briefly: Liquid growth inhibition assay, MIC. As to conditions: 37° C., 18 h. It is filed as cell-based, Micrococcus luteus. The protocol:
as §1

Another series relates to C. albicans MDM8. Description: Liquid growth inhibition assay, MIC (antifungal). It is filed as cell-based, Candida albicans. The note with it: 37° C., 24 h. The protocol:
as §1

For another series, the system named is human erythrocytes. Briefly: Hemolytic activity assay. The note with it: human erythrocytes, 1 h. It is filed as cell-based. The method, then: Method. Assays against freshly collected human erythrocytes were performed following protocols described by Pedron et al. 62. Briefly, peptide aliquots at concentrations ranging from 0.1 to 100 μmol L−1 were incubated with a suspension of erythrocytes at room temperature for 1 h. The samples were then centrifuged, and the absorbance of the supernatant was measured at 405 nm. The MHC (maximal non-hemolytic concentration) was determined as the maximal concentration at which 100% of the erythrocytes were viable. The surfactant SDS and PBS buffer were used as positive88, 89 and negative controls, respectively. Sodium heparin was used as an anticoagulant when collecting human blood. Three biological repeats were performed.

For series [2] the following is noted: at 100 μmol L^−1; cited from earlier work.
The next series relates to S. marcescens ATCC 4112. Description: Liquid growth inhibition assay, MIC. It is filed as cell-based, Serratia marcescens. The note with it: 37° C., 18 h. The protocol: as §1
The subject of the next series is B. megaterium ATCC 10778. Description: Liquid growth inhibition assay, MIC. The class given is cell-based, Bacillus megaterium. The note with it: 37° C., 18 h. The protocol:
as §1

Series [3] concerns S. epidermidis ATCC 12228. Description: Liquid growth inhibition assay, MIC. It is filed as cell-based. The note with it: 37° C., 18 h.
For series [4], the system named is MCF-7 human breast cancer cells. Briefly: Anticancer activity, MTT assay. It is filed as cell-based. As to conditions: incubation time not stated. The protocol:
The anticancer activity assays were performed using MCF-10A human breast epithelial cells and MCF-7 mammary cancer cells as previously described by Pedron et al. 86. Briefly, the day before treatment, the cells were incubated at 37° C. and 5% CO2 for 24 h. The cells were treated with peptides ranging from 12.5 to 100 μmol L^−1 (MCF10-A cells) and 0.8 to 100 μmol L^−1 (MCF-7 cells) for 4 h and 24 h at 37° C., and cell viability was measured using 3-(4,5-Dimethylthiazol-2-yl)-2,5-diphenyltetrazolium bromide (MTT) assays 87. Three independent replicates were performed in each case.
A general note: Tetrazolium dyes change colour on reduction, which living cells bring about.

In series [5] the test system is Plasmodium gallinaceum sporozoites. Briefly: Antiplasmodial activity, fluorescence microscopy. The class given is cell-based. The protocol:
Method. The activity of the peptides against Plasmodium gallinaceum sporozoites was determined by fluorescence microscopy, as previously described by Silva et. al.^83. Briefly, 9,000 sporozoites were isolated from the glands of infected Aedes aegypti mosquitos and incubated with serially diluted peptides (ranging from 0.1 to 1.6 μmol L^−1) at 37° C. for 1 h. A PBS solution and the surfactant digitonin^84, 85 were used as negative and positive controls, respectively. Propidium iodide was used to stain dead cells. Assays were executed using fluorescence microscopy. Three biological repeats each with three different mosquito batches (n=9) were used.

A short description of series [6]: Resistance to degradation in fetal bovine serum. The class given is in vitro ADME. As to conditions: bovine, fetal bovine serum, 25% in water, fetal bovine serum 25% in water, 37° C. The method, then:
The resistance to proteolytic degradation of the hybrid peptides was assessed by exposing them for 6 h to serum peptidases in a fetal bovine serum solution^68, 69 (FIG. 5a and Table S4). The peptide degradation kinetics were calculated by integrating the peak area of the peak in relation to the peptide at the beginning of the experiment (time=0) and comparing it to the integrated peak area relative to the peptides after exposure to the enzymes at time points: 0.5, 1, 2, 4, and 6 h (FIG. 5a and Table S4). […] However, AV was resistant to degradation against proteases, with almost 40% peptide content remaining after 4 h of exposure (FIG. 5a and Table S4). […] VP was almost entirely degraded after 30 min (22% of peptide remaining). […] D-amino acid substitutions have been used as alternatives to prevent the degradation of AMPs. For example, Qiu et. al. described a protonectin analog with a D-Lys residue in position 10 as an alternative to protonectin; this analog is not degraded and has higher antimicrobial activity against bacteria and fungi than the original peptide.
Methods. Stability assays were performed following the protocol described by Torres et al.^71. Briefly, a peptide solution was added to GIBCO fetal bovine serum diluted to 25% in water and kept at 37° C. The degradation kinetics were monitored by liquid chromatography and the percentage of peptide remaining was calculated by integrating the peptide peak area. The experiments were performed as three independent replicates, and aliquots were taken at 0, 0.5, 1, 2, 4, and 6 h.

Entries after “also recorded” stand apart in the source; their conditions may differ. No end group written: not given here.

On to “SLLSLIRKLIT-NH2 [Decoralin, Ser-Leu-Leu-Ser-Len-Ile-Arg-Lys-Leu-Ile-Thr, reference compound]”, for which, in the series on E. cloacae β-12, the “MIC E. cloacae β-12” value stood at 6.3 µM. For the same substance, in the series with C. tropicalis IOC 4560, the “MIC C. tropicalis IOC 4560” value is 1.6 µM. Further, the “Helical fraction (fH) PBS” value in series [1] (PBS 10 mmol L^−1, pH 7.4) was 0.06. Further, the “Helical fraction (fH) POPC” value in series [1] (POPC 10 mmol L^−1) is on record as 0.23. In series [1] (POPC:DOPE 3:1, mol:mol, 10 mmol L^−1), the “Helical fraction (fH) POPC:DOPE” value amounted to 0.19. In addition, the “Helical fraction (fH) POPC:POPG” value in [1] (POPC:POPG 3:1, mol:mol, 10 mmol L^−1) was 0.40. In series [1] (SDS 20 mmol L^−1 in water), the “Helical fraction (fH) SDS” value stood at 0.22. In addition, the “Helical fraction (fH) TFE/Water” value in series [1] (TFE in water (3:2, v:v)) was 0.29. Also, the “Helical fraction (fH) Water” value in [1] (water) is recorded as 0.05. Besides, the “MIC M. luteus A270” value against M. luteus A270 was 0.8 µM. In addition, the “MIC C. albicans MDM8” value in the series on C. albicans MDM8 worked out at 0.8 µM. The “Hemolytic activity, concentration of peptide needed to kill 10% of red blood cells” value with human erythrocytes is 1.6 µmol/L. In the series on human erythrocytes (room temperature, concentration with approximately 0% of hemolytic activity), this substance displayed an MHC of 1.6 µmol/L. In addition, the “hemolytic activity of decoralin” value in [2] is on record as “low hemolytic activity”. In addition, the “MIC S. marcescens ATCC 4112” value against S. marcescens ATCC 4112 was 3.1 µM. For the same substance, in the series on B. megaterium ATCC 10778, the “MIC B. megaterium ATCC 10778” value was determined as 1.6 µM. The “MIC S. epidermidis ATCC 12228” value in series [3] came to 6.3 µM. Further, the “concentration with activity against MCF-7 human breast cancer cells” value in [4] was found to be 50 µmol/L. Also, in series [5] (0.8 μmol L^−1, fluorescent (propidium iodide stained) sporozoites, 37° C., 1 h), the “P. gallinaceum (% sporozoites at 0.8 μmol L^−1)” value was determined as 0%. Also, the “antiplasmodial activity” value in series [5] (P. gallinaceum sporozoites, concentration range tested) is given as “no activity; also recorded: did not present antiplasmodial activity”. Further, the amount remaining (in general, what is left of the initial amount, in per cent) at 0.5 h in series [6] (30 min, read-out: remaining peptide, 30 min) was around 70%. Besides, the fraction remaining at 1 h in series [6] (1 h, read-out: remaining peptide, 1 h) was below 30%. Further, in series [6] (2 h, read-out: remaining peptide, 2 h), the amount remaining at 2 h was below 30%.

Source of the values: patent US20260250337A1, “HYBRID ANTIMICROBIAL PEPTIDES” (UNIVERSIDADE FEDERAL DO ABC, priority 2023, published 2026).
